Data on nine molecules can be found in ChEMBL document CHEMBL3132755, “Phage display libraries of differently sized bicyclic peptides” (Medchemcomm, 2013).

This assay deals with Urokinase-type plasminogen activator (Homo sapiens, UniProt P00749). Put plainly: Inhibition of human uPA using Z-Gly-Gly-Arg-AMC as substrate after 30 mins by fluorescence assay.

For the molecule `C[C@H](N)C(=O)N[C@H]1CSCc2cc3cc(c2)CSC[C@@H](C(=O)NCC(=O)O)NC(=O)[C@@H]2CCCN2C(=O)CNC(=O)CNC(=O)[C@H](CCCNC(=N)N)NC(=O)CNC(=O)[C@H](CCCNC(=N)N)NC(=O)[C@H](CSC3)NC(=O)[C@H](CC(=O)O)NC(=O)[C@H]([C@@H](C)O)NC(=O)[C@H](C)NC(=O)[C@H](C)NC(=O)[C@H](Cc2cnc[nH]2)NC(=O)[C@H](CC(N)=O)NC1=O`, the Ki (as a rule, the equilibrium dissociation constant of an inhibitor or competing ligand from its target) came to 0.71 µM.
Turning to `C[C@H](N)C(=O)N[C@H]1CSCc2cc3cc(c2)CSC[C@@H](C(=O)NCC(=O)O)NC(=O)[C@@H]2CCCN2C(=O)[C@H](Cc2ccccc2)NC(=O)[C@H](CCCNC(=N)N)NC(=O)[C@H](C)NC(=O)[C@H]([C@@H](C)O)NC(=O)[C@H](CSC3)NC(=O)[C@H](CC(=O)O)NC(=O)[C@H](CO)NC(=O)[C@H](Cc2cnc[nH]2)NC(=O)[C@H](CCCCN)NC1=O`, affinity was put at a Ki of 26.8 µM.
The molecule `CC(C)C[C@@H]1NC(=O)[C@H]([C@@H](C)O)NC(=O)[C@H](CCCNC(=N)N)NC(=O)[C@H](C)NC(=O)[C@H]([C@@H](C)O)NC(=O)[C@@H]2CSCc3cc(cc(c3)CSC[C@@H](C(=O)NCC(=O)O)NC1=O)CSC[C@H](NC(=O)[C@H](C)N)C(=O)N[C@@H](CCCCN)C(=O)N[C@@H](CCC(N)=O)C(=O)N[C@@H](CO)C(=O)N[C@@H](C(C)C)C(=O)N2` yielded a Ki of 8.67 µM.
Molecule `CC(C)C[C@@H]1NC(=O)[C@H](CO)NC(=O)[C@H](Cc2ccccc2)NC(=O)[C@H](CCCCN)NC(=O)[C@H](Cc2c[nH]c3ccccc23)NC(=O)[C@H](CC(N)=O)NC(=O)[C@@H](NC(=O)[C@H](C)N)CSCc2cc3cc(c2)CSC[C@H](NC1=O)C(=O)N[C@@H](CCC(=O)O)C(=O)N[C@@H]([C@@H](C)O)C(=O)N[C@@H](CCC(N)=O)C(=O)N[C@@H](CCCNC(=N)N)C(=O)N[C@@H](CC(N)=O)C(=O)N[C@@H](CCC(N)=O)C(=O)N[C@H](C(=O)NCC(=O)O)CSC3` returned a Ki of 1.48 µM.
`CC[C@H](C)[C@@H]1NC(=O)[C@H](CO)NC(=O)[C@H](CO)NC(=O)[C@H](CCCNC(=N)N)NC(=O)CNC(=O)[C@H](CCCNC(=N)N)NC(=O)[C@@H]2CSCc3cc(cc(c3)CSC[C@@H](C(=O)NCC(=O)O)NC1=O)CSC[C@H](NC(=O)[C@H](C)N)C(=O)N[C@@H]([C@@H](C)O)C(=O)N[C@@H](CCC(=O)O)C(=O)N[C@@H](Cc1ccccc1)C(=O)N[C@@H](CCC(N)=O)C(=O)N[C@@H]([C@@H](C)O)C(=O)N[C@@H](CC(=O)O)C(=O)N2` displayed a Ki of 0.9 µM.
For `CC(C)C[C@@H]1NC(=O)[C@@H](NC(=O)[C@H](C)N)CSCc2cc3cc(c2)CSC[C@@H](C(=O)NCC(=O)O)NC(=O)[C@H](CO)NC(=O)[C@@H]2CCCN2C(=O)[C@H](CCCNC(=N)N)NC(=O)[C@H](CCCNC(=N)N)NC(=O)[C@H](CC(N)=O)NC(=O)[C@H](CCC(=O)O)NC(=O)[C@H](CSC3)NC(=O)CNC(=O)[C@H](CCCNC(=N)N)NC(=O)[C@H](CCC(=O)O)NC(=O)CNC(=O)[C@H](CCC(N)=O)NC1=O` the value was 4.77 µM; for `CSCC[C@@H]1NC(=O)[C@H](CCC(N)=O)NC(=O)[C@H](CO)NC(=O)[C@H](CO)NC(=O)[C@@H]2CCCN2C(=O)[C@H](CO)NC(=O)[C@@H]2CSCc3cc(cc(c3)CSC[C@@H](C(=O)NCC(=O)O)NC1=O)CSC[C@H](NC(=O)[C@H](C)N)C(=O)N[C@@H](CC(N)=O)C(=O)N[C@@H](CO)C(=O)N[C@@H](CCCNC(=N)N)C(=O)N[C@@H](Cc1ccccc1)C(=O)N[C@@H](C)C(=O)N[C@@H](CC(C)C)C(=O)N2`, 14.8 µM.
`CSCC[C@@H]1NC(=O)[C@H]([C@@H](C)O)NC(=O)[C@H](Cc2ccccc2)NC(=O)[C@H](CCCCN)NC(=O)[C@@H]2CSCc3cc(cc(c3)CSC[C@@H](C(=O)NCC(=O)O)NC1=O)CSC[C@H](NC(=O)[C@H](C)N)C(=O)N[C@@H](CCCNC(=N)N)C(=O)NCC(=O)NCC(=O)N2`: affinity was put at a Ki of 23.5 µM.
Regarding `CC(C)C[C@@H]1NC(=O)[C@H](C(C)C)NC(=O)[C@H](CCC(N)=O)NC(=O)[C@H]([C@@H](C)O)NC(=O)[C@H](C)NC(=O)[C@@H]2CCCN2C(=O)[C@@H]2CSCc3cc(cc(c3)CSC[C@@H](C(=O)NCC(=O)O)NC1=O)CSC[C@H](NC(=O)[C@H](C)N)C(=O)N[C@@H]([C@@H](C)O)C(=O)N[C@@H](C)C(=O)N[C@@H](CCCNC(=N)N)C(=O)N[C@@H]([C@@H](C)O)C(=O)N2`, the Ki is 48.7 µM.
